# Test results: patent publication US12091426B2, “Bifunctional degraders of hematopoietic progenitor kinase and therapeutic uses thereof” (Nurix Therapeutics, Inc., priority 2021, dated 2024)
# Target: T1, HPK1 (Homo sapiens, UniProt Q92918)
# T1 construct: A HiBiT tag was introduced by CRISPR on the N terminus of HPK1 in Jurkat cells; host or cells: Jurkat cells (ATCC TIB-152), monoclonal line with CRISPR knock-in of HiBiT at the endogenous HPK1 locus
# Experiment: HPK1 Cellular HiBit Degradation Assay
# Assay type: cell-based
# Conditions: HiBiT HPK1 Jurkat cells, 24 hrs; for DC50: concentration at which 50% of HPK1 was remaining, read-out: DC50 Category; for Dmax: Jurkat, maximum degradation vs DMSO vehicle control, read-out: Dmax Category
# Procedure, shortened: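 HiBiT-HPK1 Jurkat (CRISPR, N-term tag), 3×10^4 cells/well, RPMI 1640 + 10% FBS; CTMs 10 uM–0.1 nM, 11 pts; 24 hrs, 37° C/5% CO2; lytic HiBiT luminescence; % remaining vs DMSO, parental background subtracted; 4-parameter fit → DC50, Dmax.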
# T1 sequence (Q92918 whole entry): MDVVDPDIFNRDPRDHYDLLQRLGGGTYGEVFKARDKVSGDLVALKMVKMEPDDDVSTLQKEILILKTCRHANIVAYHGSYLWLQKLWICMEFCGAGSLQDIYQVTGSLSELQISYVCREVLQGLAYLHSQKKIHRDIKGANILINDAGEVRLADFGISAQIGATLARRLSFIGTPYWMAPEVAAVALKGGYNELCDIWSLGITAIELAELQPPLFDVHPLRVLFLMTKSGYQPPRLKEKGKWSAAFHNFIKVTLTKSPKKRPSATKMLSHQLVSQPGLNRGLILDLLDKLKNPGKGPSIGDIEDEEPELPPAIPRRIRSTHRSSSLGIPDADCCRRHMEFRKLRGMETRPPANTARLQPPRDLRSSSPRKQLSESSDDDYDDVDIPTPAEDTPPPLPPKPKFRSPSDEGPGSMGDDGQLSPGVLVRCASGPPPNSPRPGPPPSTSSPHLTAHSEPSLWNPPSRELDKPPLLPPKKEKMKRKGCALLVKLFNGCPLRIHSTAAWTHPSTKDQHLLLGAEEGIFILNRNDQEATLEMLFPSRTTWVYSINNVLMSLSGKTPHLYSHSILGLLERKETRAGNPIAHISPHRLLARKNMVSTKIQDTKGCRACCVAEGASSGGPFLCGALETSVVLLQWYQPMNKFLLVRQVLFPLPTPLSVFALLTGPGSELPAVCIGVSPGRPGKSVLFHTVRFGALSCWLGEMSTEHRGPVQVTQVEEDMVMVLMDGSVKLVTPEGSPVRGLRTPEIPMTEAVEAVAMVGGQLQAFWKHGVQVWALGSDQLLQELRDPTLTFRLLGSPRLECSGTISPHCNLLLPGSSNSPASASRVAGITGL
DC50,Dmax,Structure (SMILES)
< 100 nM,> 85%,"CC(C)n1cnc2cc(-c3ccc4c(c3)N([C@H]3C[C@@H](N5CCCCC5)C3)C(=O)C43CCN(C(=O)C4(C)CCN(C(=O)C5CCN(c6ccc(N7CCC(=O)NC7=O)cn6)CC5)CC4)CC3)nc(Nc3ccncc3F)c21 [Example 117, 1-[6-(4-{4-[(6-{4-[(3-fluoropyridin-4-yl)amino]-3-(propan-2-yl)-3H-imidazo[4,5-c]pyridin-6-yl}-2-oxo-1-[(1S,3S)-3-(piperidin-1-yl)cyclobutyl]-1,2-dihydrospiro[indole-3,4′-piperidin]-1′-yl)carbonyl]-4-methylpiperidine-1-carbonyl}piperidin-1-yl)pyridin-3-yl]-1,3-diazinane-2,4-dione]"
< 100 nM,70 to 85%,"CC(C)n1cnc2cc(-c3ccc4c(c3)N([C@H]3C[C@@H](N5CCCCC5)C3)C(=O)C43CCN(C(=O)C4(F)CCN(C(=O)C5CCN(c6ccc(C7CCC(=O)NC7=O)cn6)CC5)CC4)CC3)nc(NC3CC3)c21 (mixture of isomers) [Example 277, (3RS)-3-(6-{4-[4-({6-[4-(cyclopropylamino)-3-(propan-2-yl)-3H-imidazo[4,5-c]pyridin-6-yl]-2-oxo-1-[(1S,3S)-3-(piperidin-1-yl)cyclobutyl]-1,2-dihydrospiro[indole-3,4′-piperidin]-1′-yl}carbonyl)-4-fluoropiperidine-1-carbonyl]piperidin-1-yl}pyridin-3-yl)piperidine-2,6-dione]"
< 100 nM,70 to 85%,"CC(C)n1cnc2cc(-c3ccc4c(c3)N([C@H]3C[C@@H](N5CCCCC5)C3)C(=O)C43CCN(C(=O)C4CCN(C(=O)C5CCN(c6ccc(C7CCC(=O)NC7=O)cn6)CC5)CC4)CC3)nc(Nc3ccncc3F)c21 (mixture of isomers) [Example 77, (3RS)-3-[6-(4-{4-[(6-{4-[(3-Fluoropyridin-4-yl)amino]-3-(propan-2-yl)-3H-imidazo[4,5-c]pyridin-6-yl}-2-oxo-1-[(1S,3S)-3-(piperidin-1-yl)cyclobutyl]-1,2-dihydrospiro[indole-3,4′-piperidin]-1′-yl)carbonyl]piperidine-1-carbonyl}piperidin-1-yl)pyridin-3-yl]piperidine-2,6-dione]"
500 to 1000 nM,50 to 70%,"CC(C)n1cnc2cc(-c3ccc4c(c3)N([C@H]3C[C@@H](N5CCCCC5)C3)C(=O)C43CCN(C(=O)c4ccc(C(=O)N(C)C5CCN(c6ccc(C7CCC(=O)NC7=O)cn6)CC5)cc4)CC3)nc(Nc3ccccc3F)c21 (mixture of isomers) [Example 141, N-(1-{5-[(3RS)-2,6-dioxopiperidin-3-yl]pyridin-2-yl}piperidin-4-yl)-4-[(6-{4-[(2-Fluorophenyl)amino]-3-(propan-2-yl)-3H-imidazo[4,5-c]pyridin-6-yl}-2-oxo-1-[(1S,3S)-3-(piperidin-1-yl)cyclobutyl]-1,2-dihydrospiro[indole-3,4′-piperidin]-1′-yl)carbonyl]-N-methylbenzamide]"

# Continued, compound first:
Structure (SMILES),DC50,Dmax
"CC(C)n1cnc2cc(-c3ccc4c(c3)N([C@H]3C[C@@H](N5CCCCC5)C3)C(=O)C43CCN(C(=O)[C@H]4CC[C@H](C(=O)N5CCC(Oc6ccc(C7CCC(=O)NC7=O)cn6)CC5)CC4)CC3)nc(Nc3ccccc3F)c21 (mixture of isomers) [Example 28, (3RS)-3-[6-({1-[(1R,4R)-4-[(6-{4-[(2-fluorophenyl)amino]-3-(propan-2-yl)-3H-imidazo[4,5-c]pyridin-6-yl}-2-oxo-1-[(1S,3S)-3-(piperidin-1-yl)cyclobutyl]-1,2-dihydrospiro[indole-3,4′-piperidin]-1′-yl)carbonyl]cyclohexanecarbonyl]piperidin-4-yl}oxy)pyridin-3-yl]piperidine-2,6-dione]",< 100 nM,70 to 85%
"CC(C)n1cnc2cc(-c3ccc4c(c3)N([C@H]3C[C@@H](N5C6CCC5COC6)C3)C(=O)C43CCN(C(=O)C4(C)CCN(C(=O)CC5CCN(c6ccc(C7CCC(=O)NC7=O)cc6)CC5)CC4)CC3)nc(NC3CC3)c21 (mixture of isomers) [Example 202, (3RS)-3-[4-(4-{2-[4-({6-[4-(cyclopropylamino)-3-(propan-2-yl)-3H-imidazo[4,5-c]pyridin-6-yl]-2-oxo-1-[(1S,3S)-3-{3-oxa-8-azabicyclo[3.2.1]octan-8-yl}cyclobutyl]-1,2-dihydrospiro[indole-3,4′-piperidin]-1′-yl}carbonyl)-4-methylpiperidin-1-yl]-2-oxoethyl}piperidin-1-yl)phenyl]piperidine-2,6-dione]",500 to 1000 nM,50 to 70%
"CC(C)n1cnc2cc(-c3ccc4c(c3)N([C@H]3C[C@@H](N5CCCCC5)C3)C(=O)C43CCN(C(=O)[C@@H]4C[C@@H]5C[C@H]4CN5C(=O)C4CCN(c5ccc(C6CCC(=O)NC6=O)cn5)CC4)CC3)nc(NC3CC3)c21 (mixture of isomers) [Example 265, (3RS)-3-(6-{4-[(S,4R,5R)-5-({6-[4-(cyclopropylamino)-3-(propan-2-yl)-3H-imidazo[4,5-c]pyridin-6-yl]-2-oxo-1-[(1S,3S)-3-(piperidin-1-yl)cyclobutyl]-1,2-dihydrospiro[indole-3,4′-piperidin]-1′-yl}carbonyl)-2-azabicyclo[2.2.1]heptane-2-carbonyl]piperidin-1-yl}pyridin-3-yl)piperidine-2,6-dione]",< 100 nM,70 to 85%
"CC(C)n1cnc2cc(-c3ccc4c(c3)N([C@H]3C[C@@H](N5CCCCC5)C3)C(=O)C43CCN(C(=O)C45CN(C(=O)C6CCN(c7ccc(C8CCC(=O)NC8=O)cn7)CC6)CC4C5(F)F)CC3)nc(NC3CC3)c21 (mixture of isomers) [Example 281, (3RS)-3-(6-{4-[1-({6-[4-(cyclopropylamino)-3-(propan-2-yl)-3H-imidazo[4,5-c]pyridin-6-yl]-2-oxo-1-[(1S,3S)-3-(piperidin-1-yl)cyclobutyl]-1,2-dihydrospiro[indole-3,4′-piperidin]-1′-yl}carbonyl)-6,6-difluoro-3-azabicyclo[3.1.0]hexane-3-carbonyl]piperidin-1-yl}pyridin-3-yl)piperidine-2,6-dione]",< 100 nM,50 to 70%
"CC1C(C(=O)N2CCC3(CC2)C(=O)N([C@H]2C[C@@H](N4CCCCC4)C2)c2cc(-c4cc5ncn(C(C)C)c5c(NC5CC5)n4)ccc23)CCCN1C(=O)C1CCN(c2ccc(C3CCC(=O)NC3=O)cc2)CC1 (mixture of isomers) [Example 254, (3RS)-3-(4-{4-[3-({6-[4-(cyclopropylamino)-3-(propan-2-yl)-3H-imidazo[4,5-c]pyridin-6-yl]-2-oxo-1-[(1S,3S)-3-(piperidin-1-yl)cyclobutyl]-1,2-dihydrospiro[indole-3,4′-piperidin]-1′-yl}carbonyl)-2-methylpiperidine-1-carbonyl]piperidin-1-yl}phenyl)piperidine-2,6-dione]",100 to 500 nM,50 to 70%
"CC(C)n1cnc2cc(-c3ccc4c(c3)N([C@H]3C[C@@H](N5CCCCC5)C3)C(=O)C43CCN(C(=O)C4(C)CCN(C(=O)[C@H]5CC[C@H](Nc6ccc(C7CCC(=O)NC7=O)cc6)CC5)CC4)CC3)nc(NC3CC3)c21 (mixture of isomers) [Example 191, (3RS)-3-(4-{[(1R,4R)-4-[4-({6-[4-(cyclopropylamino)-3-(propan-2-yl)-3H-imidazo[4,5-c]pyridin-6-yl]-2-oxo-1-[(1S,3S)-3-(piperidin-1-yl)cyclobutyl]-1,2-dihydrospiro[indole-3,4′-piperidin]-1′-yl}carbonyl)-4-methylpiperidine-1-carbonyl]cyclohexyl]amino}phenyl)piperidine-2,6-dione]",< 100 nM,70 to 85%
"CC(C)n1cnc2cc(-c3ccc4c(c3)N([C@H]3C[C@@H](N5CCCCC5)C3)C(=O)C43CCN(C(=O)C4(C)CCN(C(=O)C5CCN(c6ccc(C7CCC(=O)NC7=O)cn6)CC5)CC4)CC3)nc(N3CCCC3)c21 (stereo partly drawn) [Example 170, 3-(6-{4-[4-methyl-4-({2-oxo-6-[3-(propan-2-yl)-4-(pyrrolidin-1-yl)-3H-imidazo[4,5-c]pyridin-6-yl]-1-[(1S,3S)-3-(piperidin-1-yl)cyclobutyl]-1,2-dihydrospiro[indole-3,4′-piperidin]-1′-yl}carbonyl)piperidine-1-carbonyl]piperidin-1-yl}pyridin-3-yl)piperidine-2,6-dione]",100 to 500 nM,50 to 70%
"CC(C)n1cnc2cc(-c3ccc4c(c3)N([C@H]3C[C@@H](N5CCCCC5)C3)C(=O)C43CCN(C(=O)C4CCN(C(=O)CN5CCN(c6ccc(C7CCC(=O)NC7=O)cn6)CC5)CC4)CC3)nc(Nc3ccncc3F)c21 (mixture of isomers) [Example 96, (3RS)-3-{6-[4-(2-{4-[(6-{4-[(3-fluoropyridin-4-yl)amino]-3-(propan-2-yl)-3H-imidazo[4,5-c]pyridin-6-yl}-2-oxo-1-[(1S,3S)-3-(piperidin-1-yl)cyclobutyl]-1,2-dihydrospiro[indole-3,4′-piperidin]-1′-yl)carbonyl]piperidin-1-yl}-2-oxoethyl)piperazin-1-yl]pyridin-3-yl}piperidine-2,6-dione]",100 to 500 nM,70 to 85%
"CCC1(C(=O)N2CCC3(CC2)C(=O)N([C@H]2C[C@@H](N4CCCCC4)C2)c2cc(-c4cc5ncn(C(C)C)c5c(NC5CC5)n4)ccc23)CCN(C(=O)C2CCN(c3ccc(C4CCC(=O)NC4=O)cn3)CC2)CC1 (mixture of isomers) [Example 255, (3RS)-3-(6-{4-[4-({6-[4-(cyclopropylamino)-3-(propan-2-yl)-3H-imidazo[4,5-c]pyridin-6-yl]-2-oxo-1-[(1S,3S)-3-(piperidin-1-yl)cyclobutyl]-1,2-dihydrospiro[indole-3,4′-piperidin]-1′-yl}carbonyl)-4-ethylpiperidine-1-carbonyl]piperidin-1-yl}pyridin-3-yl)piperidine-2,6-dione]",< 100 nM,> 85%
